Test in all cases: NCI tumour cell line growth inhibition, 48 h
Experiment [1] relates to SK-MEL-5 melanoma.
The subject of experiment [2] is DU-145 prostate.
For experiment [3], the system named is MDA-MB-231 breast.
The subject of experiment [4] is HCC-2998 colon.
Experiment [5] relates to OVCAR-5 ovarian.
Experiment [6] has as its system T-47D breast.
The test system of experiment [7] is HCT-15 colon.
Experiment [8] deals with SK-MEL-2 melanoma.
Experiment [9] deals with KM12 colon.
The test system of experiment [10] is PC-3 prostate.

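All cell lines were grown in 96-well plates and treated with compound for 48 hours. GI50 = concentration required for 50% inhibition of growth. TGI is the concentration that stops growth completely.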 A value given as a limit tells only on which side of the number the result lay.

For the compound `CN1CCN(c2ccc3nc(-c4cc(C(C)(C)C)c(O)c(C(C)(C)C)c4)[nH]c3c2)CC1`, the GI50 is 1.76 µM in experiment [1]; 4.66 µM in experiment [2]; 2.09 µM in [3]; 1.85 µM in experiment [4]; 3.53 µM in [5]; 2.86 µM in [6]. Also, the GI50 in experiment [7] was 1.71 µM; in experiment [8], 2.38 µM; in [9] it was 1.8 µM; in experiment [10], 1.92 µM. Moreover, the TGI in experiment [1] turned out to be 3.17 µM; in experiment [2] it was 16 µM; in experiment [3], 4.31 µM; in [4], 3.43 µM; in experiment [5], 12 µM; in experiment [6] it was 7.61 µM. Also, the TGI was 3.49 µM in experiment [7], 5.49 µM in experiment [8], 4.32 µM in [9] and 4.17 µM in experiment [10].

`O=C1OC(c2ccc(O)c(-c3ccccc3)c2)(c2ccc(O)c(-c3ccccc3)c2)c2c(Cl)c(Cl)c(Cl)c(Cl)c21`: the TGI in [1], in experiment [2], in experiment [3], in experiment [4], in experiment [5] and in experiment [6] was > 100 µM each time. For the same compound, the TGI in [7], in [8], in experiment [9] and in experiment [10] was > 100 µM each time.

Consider `CCc1c2c(nc3cc4c(cc13)OCO4)-c1cc3c(c(=O)n1C2)COC(=O)[C@@]3(CC)OC(=O)CN`, for which the GI50 in [1] is < 0.01 µM; in experiment [2], < 0.01 µM; in [3], 0.195 µM; in experiment [4] it was < 0.0112 µM; in experiment [5] it was < 0.01 µM; in [6], < 0.01 µM. The GI50 in [7] is 0.0236 µM; in experiment [8], 0.0954 µM; in [9], < 0.0143 µM; in [10] it was < 0.01 µM. Also, the TGI came out at 0.037 µM in [1]; 0.0426 µM in [2]; 15 µM in experiment [3]; 0.194 µM in [4]; 0.417 µM in experiment [5]; 0.512 µM in experiment [6]. The TGI was > 100 µM in experiment [7], 0.998 µM in [8], 0.309 µM in experiment [9] and > 35.5 µM in [10].

For `Cc1nn(C(=O)c2ccc(Cl)cc2)c2c1C(c1ccc([N+](=O)[O-])cc1)SC(N)=N2` (centres undefined), the TGI in [1], in experiment [2], in [3], in [4], in experiment [5] and in experiment [6] was > 10 µM each time. Moreover, the TGI in experiment [7], in [8], in [9] and in [10] was > 10 µM each time.

In the case of `CO[C@@H]1[C@@H](OC2OC(C)C(OC3CC(C)(O)C(OC(=O)CC(C)C)C(C)O3)C(N(C)C)C2O)[C@@H](CC=O)C[C@@H](C)C(=O)/C=C/C2O[C@H]2C[C@@H](C)OC(=O)C[C@H]1OC(C)=O` (some centres undefined), the TGI in experiment [1] turned out to be 32.9 µM; in experiment [2] it was 28 µM; in experiment [3], 45.6 µM; in [4], 32 µM; in [5], 31.8 µM; in experiment [6], 84.4 µM. In addition, the TGI in experiment [7] is 36 µM; in [8], 43.7 µM; in experiment [9] it was 32.2 µM; in [10], 38.4 µM.

On to `CCC(Sc1nnc2c3ccccc3n(CC)c2n1)C(=O)Nc1ccccc1OC` (centres undefined), for which the GI50 was 60.8 µM in experiment [1]; > 100 µM in [2]; 52.5 µM in [3]; > 100 µM in experiment [4]; 1.94 µM in [5]; 7.74 µM in experiment [6]. In addition, the GI50 in [7] is 66.8 µM; in experiment [8], > 100 µM; in [9], 91.3 µM; in [10] it was 59.3 µM. The TGI in experiment [1] is > 100 µM; in [2] it was > 100 µM; in experiment [3], > 100 µM; in [4], > 100 µM; in experiment [5], 11.7 µM; in experiment [6], > 100 µM. Besides, the TGI in experiment [7], in experiment [8], in [9] and in [10] was > 100 µM each time.

With `O=C(Nc1ccc(Br)cc1)Nc1n[nH]c2ccccc12`, the GI50 in experiment [1] was > 88.7 µM; in experiment [2], > 60.2 µM; in experiment [3] it was > 50.3 µM; in experiment [4] it was > 100 µM; in experiment [5], > 100 µM; in experiment [6] it was > 100 µM. Moreover, the GI50 was 17.3 µM in experiment [7], > 100 µM in experiment [8], > 76.4 µM in experiment [9] and > 82.7 µM in experiment [10]. Further, the TGI in [1], in experiment [2], in experiment [3], in experiment [4], in [5] and in experiment [6] was > 100 µM throughout. Besides, the TGI in experiment [7], in [8], in experiment [9] and in experiment [10] was > 100 µM in each case.

`COc1cccc(/C=N\Nc2ccc([N+](=O)[O-])cn2)c1O`: the GI50 is 1.76 µM in experiment [1]; 4.34 µM in [2]; 3.95 µM in experiment [3]; 8.01 µM in experiment [4]; 5.71 µM in [5]; 3.83 µM in [6]. The GI50 is 9.69 µM in experiment [8], 6.04 µM in [9] and 14 µM in experiment [10]. Moreover, the TGI was 5.92 µM in experiment [1]; 62.6 µM in experiment [2]; 96.2 µM in experiment [3]; > 100 µM in experiment [4]; 82.7 µM in experiment [5]; 89.1 µM in experiment [6]. Moreover, the TGI in [7] is 39.7 µM; in experiment [8], 54.4 µM; in [9] it was 51.5 µM; in experiment [10], > 100 µM.

As for `COc1cnc2c(c1)C(=O)c1c-2n(CCCn2ccnc2)c(=O)c2cc(Cl)ccc12`, the GI50 in [1] was 0.0387 µM; in experiment [2], 0.0432 µM; in experiment [3], 1.27 µM; in [4], 0.382 µM; in experiment [5], 0.309 µM; in experiment [6], 0.0263 µM. Besides, the GI50 in experiment [7] was 0.159 µM; in [8] it was 0.574 µM; in [9], 0.238 µM; in experiment [10], 0.0667 µM. Moreover, the TGI in experiment [1] is 0.164 µM; in [2], > 100 µM; in experiment [3], > 100 µM; in [4], > 100 µM; in experiment [5] it was 35 µM; in [6], 0.309 µM. Besides, the TGI in experiment [7] is > 100 µM; in experiment [8], 14.3 µM; in experiment [9], > 100 µM; in [10] it was > 100 µM.

Source of the values: PubChem BioAssay (NCI).
